Laboratory results: paper PMC6405842, “Identification of a novel scaffold for a small molecule GPR139 receptor agonist” (Scientific Reports, 2019)
Residue numbers refer to the chain shown, from its start.

Columns and labels:
GPR139 F109A^3×33 = molecular target: T1, GPR139 F109A^3×33 (Homo sapiens, UniProt Q6DWJ6, F109A); test: Ca2+ mobilization on GPR139 mutant F109A; type: cell-based
T1 construct: myc (N); expressed in transfected cells
T1 sequence (Q6DWJ6 1-353 F109A): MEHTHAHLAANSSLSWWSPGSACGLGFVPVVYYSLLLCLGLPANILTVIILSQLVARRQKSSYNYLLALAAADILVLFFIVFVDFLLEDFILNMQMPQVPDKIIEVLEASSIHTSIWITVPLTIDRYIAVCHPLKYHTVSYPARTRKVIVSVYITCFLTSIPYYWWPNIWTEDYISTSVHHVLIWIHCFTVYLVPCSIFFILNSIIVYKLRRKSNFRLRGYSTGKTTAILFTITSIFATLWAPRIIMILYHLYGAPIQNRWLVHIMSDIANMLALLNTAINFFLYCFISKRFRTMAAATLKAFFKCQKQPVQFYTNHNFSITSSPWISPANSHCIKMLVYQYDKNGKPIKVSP
Procedure: Figure 4 Ca^2+ mobilization concentration-response curves of AC4 on GPR139 wild-type (WT) and mutants. Data is shown from a representative experiment (mean ± S.D.) out of three independent experiments performed in duplicate. Data is normalized to the Ca^2+ response of buffer (0%) and 100 μM AC4 (100%) on myc-GPR139(WT). Residue numbering in superscript is according to GPCRdb numbering system.
The mutational studies were performed as previously described.

GPR139 = molecular target: T2, GPR139 (Homo sapiens, UniProt Q6DWJ6); test: Phospho-ERK1/2 HTRF assay in CHO-GPR139 cells; type: cell-based; settings: ERK phosphorylation
T2 construct: host or cells: CHO-k1
T2 sequence (Q6DWJ6 1-353): T1 sequence (Q6DWJ6 1-353 F109A) with A109F
Procedure: All compounds were tested on a CHO-k1 cell line stably expressing GPR139 (CHO-GPR139)[11] kindly provided by H. Lundbeck A/S, Denmark. GPR139-specific responses were assessed using a CHO-k1 cell line stably expressing the muscarinic acetylcholine receptor M1 (CHO-M1) (The Missouri S&T cDNA Resource Center, # CEM100TN00).
Phospho-ERK measurements were made using the Advanced Phospho-ERK1/2 (Thr202/Tyr204) HTRF kit by Cisbio (Codolet, France). Approximately 24 hours prior to the experiment, CHO-GPR139 cells were plated at 50,000 cells/well onto a 96-well plate and cultured as detailed above. Approximately 6 hours later, the media was aspirated, replaced with 50 μL serum-free media, and the cells were allowed to serum starve overnight. The day of the experiment, serial dilutions of the test compounds and controls were made in serum-free media at 2x final concentration. 50 μL of test compounds were added directly to the appropriate wells for 5 minute stimulation at 37 °C. At this point, the media and compounds were rapidly aspirated, lysis/blocking buffer was added, and cells were lysed on a shaker for 30 minutes at room temperature.
The Ca^2+ and ERK responses were normalized as indicated and the concentration response curves were fitted by Prism 6 software (GraphPad) using nonlinear regression in a sigmoidal model with variable slope, as has been previously described.

O=C(O)C1CC=CCC1c1nnc(CSc2ccc(Cl)cc2)o1 (stereo not drawn) [AC4]
Ca2+ response (GPR139 F109A^3×33): no measurable Ca^2+ response | EC50 (GPR139; CHO-GPR139 cells, read-out: pEC50 ± SEM (converted)): 178 nM | Emax (GPR139; expressed relative to FBS positive control): 77.2 ± 6.53%
